Consider 18 compounds from patent publication US7655671B2, “Morphinan derivatives, the quaternary ammonium salts thereof substituted in position 14, method for production and use thereof” (priority 2002, dated 2010).

One data set concerns the target T1, μ-opioid receptors (Rattus norvegicus, UniProt P33535).
T1 construct: from tissue; host or cells: rat brain homogenate
Briefly: Opioid receptor binding studies on rat's brain homogenisates with [3H]DAMGO.

Each structure is given as a SMILES string. Counter-ions that a name gives are not always drawn. Where only a bound is given, the exact number is not on record here.

T1 sequence (P33535 whole entry): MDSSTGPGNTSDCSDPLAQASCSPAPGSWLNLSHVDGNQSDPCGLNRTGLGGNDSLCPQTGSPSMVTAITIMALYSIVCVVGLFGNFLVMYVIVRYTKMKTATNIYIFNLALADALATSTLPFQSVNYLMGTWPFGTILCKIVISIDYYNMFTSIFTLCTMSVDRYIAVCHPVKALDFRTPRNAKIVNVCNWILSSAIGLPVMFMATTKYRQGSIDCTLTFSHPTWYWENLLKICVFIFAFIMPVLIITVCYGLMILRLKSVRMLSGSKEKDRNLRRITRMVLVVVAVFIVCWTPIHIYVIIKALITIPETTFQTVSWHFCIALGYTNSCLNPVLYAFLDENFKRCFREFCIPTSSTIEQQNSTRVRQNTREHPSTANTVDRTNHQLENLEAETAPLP

The melting point is the temperature of the solid-liquid transition. The Ki is the dissociation constant of the complex between target and ligand, obtained from inhibition or displacement. In turn, `C=CC[N@@+]1(C)CC[C@]23c4c5ccc(O)c4O[C@H]2C(=O)CC[C@@]3(OCC)[C@H]1C5.[I-]` [Compound 41, (17R)-17-allyl-4,5α-epoxy-14β-ethoxy-3-hydroxy-17-methyl-6-oxomorphinanium-iodide] had a melting point of 130 to 134 °C. Moreover, the Ki on μ-opioid receptors turned out to be 2.32 nM.
On to `CCN1CC[C@]23c4c5ccc(O)c4O[C@H]2C(=O)CC[C@@]3(OCCCc2ccccc2)[C@H]1C5` (as salt: hydrochloride), for which the melting point lay in the range of 178 to 180 °C.
The same measure, in the same setting: the same measure for `COc1ccc2c(c1O)[C@]13CCN(C)[C@H](C2)[C@]1(O)CCC(=O)[C@H]3C` (stereo in doubt): > 185 °C (dec.); for `O=C1CC[C@@]2(OCCCc3ccccc3)[C@H]3Cc4ccc(O)c5c4[C@@]2(CCN3CCc2ccccc2)[C@H]1O5` (as salt: hydrochloride) [Compound 9, 4,5α-epoxy-3-hydroxy-17-(2-phenylethyl)-14β-(3-phenylpropyloxy)morphinan-6-one hydrochloride]: > 218 °C (dec.); for `CC(C)CCO[C@@]12CCC(=O)[C@@H]3Oc4c(O)ccc5c4[C@@]31CCN(CC1CC1)[C@@H]2C5` (as salt: hydrochloride): 168 to 170 °C.
On the same count and under the same terms, as for `CC[N@@+]1(C)CC[C@]23c4c5ccc(O)c4O[C@H]2C(=O)CC[C@@]3(OCCCc2ccccc2)[C@H]1C5.[I-]`, the figure is 171 to 176 °C; as for `COc1ccc2c(c1O)[C@]13CCN(C)[C@H](C2)[C@]1(OCc1ccc2ccccc2c1)CCC(=O)C3` (as salt: hydrochloride), 195 to 197 °C.
On the same count and under the same terms, as for `COc1ccc2c(c1OC)[C@]13CCN(C)C(C2)[C@]1(O)CCC(=O)[C@H]3C`, the figure is 122 to 124 °C; as for `COc1ccc2c(c1OC)[C@]13CCN(C)C(C2)[C@]1(OCCCc1ccccc1)CCC(=O)C3`, 110 to 115 °C.
In the case of `O=C1CC[C@@]2(OCCCc3ccccc3)[C@H]3Cc4ccc(O)c5c4[C@@]2(CCN3CC2CCC2)[C@H]1O5` (as salt: hydrochloride) [Compound 7, 17-cyclobutylmethyl-4,5α-epoxy-3-hydroxy-14β-(3-phenylpropyloxy)morphinan-6-one hydrochloride], the melting point is > 227 °C (dec.).
Same read-out and setting: as for `COc1ccc2c3c1O[C@H]1C(=O)CC[C@@]4(OCCCc5ccccc5)C(C2)N(CC2CCCO2)CC[C@]314` (stereo partly shown) (as salt: hydrochloride), the figure is 121 to 123 °C; as for `COc1ccc2c3c1O[C@H]1C(=O)CC[C@@]4(OCCCc5ccccc5)[C@@H](C2)N(CCc2ccccc2)CC[C@]314` (as salt: hydrochloride) [Compound 4, 4,5α-epoxy-3-methoxy-17-(2-phenylethyl)-14β-(3-phenylpropyloxy)morphinan-6-one hydrochloride], 128 to 130 °C.
On the same count and under the same terms, the same measure for `C=CC[N@+]1(C)CC[C@]23c4c5ccc(O)c4OC2(Cc2ccccc2)C(=O)CCC3(OCCCC)C1C5.[I-]` (stereo partly shown): 200 to 205 °C.
As for `COc1cccc2c1[C@]13CCN(CC4CC4)[C@H](C2)[C@]1(OC)CCC(=O)C3` [Cyprodime, cyprodime, reference compound], at μ-opioid receptors, affinity was put at a Ki of 23.7 nM. This lies in the double-digit nanomolar range.
As for `COC12CCC(=O)C3Oc4c(O)ccc5c4[C@@]31CC[N@+](C)(CCc1ccccc1)C2C5.[I-]` (stereo partly shown), the melting point lay within 180 to 181 °C.
In turn, `COc1ccc2c3c1O[C@H]1C(=O)CC[C@@]4(OCCCc5ccccc5)[C@@H](C2)N(CC2CCC2)CC[C@]314` (as salt: hydrochloride) gave a melting point of 128 to 133 °C.
On the same count and under the same terms, the same measure for `COc1ccc2c(c1OC)[C@]13CCN(C)[C@H](C2)[C@]1(OCc1ccc2ccccc2c1)CCC(=O)C3` (as salt: hydrochloride): 165 to 170 °C; for `CC#COc1ccc2c3c1O[C@H]1C(=O)CC[C@@]4(OCc5cccc(Cl)c5)C(C2)N(C)CC[C@]314` (as salt: hydrochloride): 145 to 150 °C.
